Data as given in patent publication US8415469B2, “Compounds and methods for kinase modulation, and indications therefor” (Plexxikon Inc., priority 2005, dated 2013).

Experiments:
Format in all cases: biochemical
Plk1 = Plk1 (Homo sapiens, UniProt P53350); assay: AlphaScreen kinase assay, Plk1; settings: read-out: IC50, activity toward kinase Plk1
From the text: AlphaScreen assay was used to screen additional kinases. The assay is similarly dependent on the phosphorylation of a peptide substrate. In this assay, an antibody that recognizes phosphorylated substrate is bound to an acceptor bead. The peptide substrate is attached to biotin, which binds to a donor head that contains streptavidin. Thus phosphorylated substrate is bound by antibody and streptavidin, bringing the donor and acceptor heads into close proximity when kinase is not inhibited. The donor produces singlet oxygen which results in emission from the acceptor when they are in close proximity. Conversely, when kinase is inhibited, the donor and acceptor beads are not associated and the emission from the acceptor is reduced.
AlphaScreen assays were done using compounds dissolved in DMSO to a concentration of 20 mM. The compounds were diluted accordingly to the desired final concentrations in each sample well, using 1:3 serial dilution for a total of 8 concentration points.

B-Raf V600E = molecular target: T1, B-Raf V600E (Homo sapiens, UniProt P15056, V600E); assay: AlphaScreen kinase assay, B-Raf V600E; settings: read-out: IC50, activity toward kinase B-Raf V600E
T1 construct: P4254. pFastBacBD-CDC37 BRAF D437-K722-X, V600E; His6 with pFastBac HT leader (TEV site) (N); made in house; host or cells: Sf9 (baculovirus; chaperone CDC37 co-expressed)

Ret = molecular target: T2, Ret (Homo sapiens, UniProt P07949); assay: AlphaScreen kinase assay, Ret; settings: read-out: IC50, activity toward kinase Ret
T2 construct: P1378.pET-SF BI-PTP RET H661-R1012 HIS; made in house
T2 sequence (P07949 with tags, fused parts or gaps): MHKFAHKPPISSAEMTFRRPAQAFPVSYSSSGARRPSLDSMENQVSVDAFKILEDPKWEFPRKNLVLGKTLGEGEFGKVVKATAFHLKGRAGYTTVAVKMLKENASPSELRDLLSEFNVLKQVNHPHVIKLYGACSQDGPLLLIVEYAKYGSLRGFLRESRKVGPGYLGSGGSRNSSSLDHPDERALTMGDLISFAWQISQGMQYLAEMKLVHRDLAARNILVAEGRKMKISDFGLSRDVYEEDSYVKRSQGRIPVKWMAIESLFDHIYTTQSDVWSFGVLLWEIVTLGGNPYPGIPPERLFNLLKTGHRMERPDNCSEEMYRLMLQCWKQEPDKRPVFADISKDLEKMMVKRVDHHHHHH

Gsk3β = Gsk3β (Homo sapiens, UniProt P49841); assay: AlphaScreen kinase assay, Gsk3β; settings: read-out: IC50, activity toward kinase Gsk3β
Outline: (§1)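 Bead-proximity format: phosphopeptide links anti-phospho antibody acceptor beads to streptavidin donor beads via biotin tag. Compounds were serially diluted 1:3 (8 points) from 20 mM stocks in DMSO.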

Stk6 = molecular target: T3, Stk6 (Homo sapiens, UniProt O14965); assay: Z'-Lyte FRET kinase assay (Invitrogen), Stk6; settings: read-out: IC50, activity toward kinase Stk6
T3 construct: purchased Invitrogen (Carlsbad, Calif.), screening service
T3 sequence (O14965 1-403): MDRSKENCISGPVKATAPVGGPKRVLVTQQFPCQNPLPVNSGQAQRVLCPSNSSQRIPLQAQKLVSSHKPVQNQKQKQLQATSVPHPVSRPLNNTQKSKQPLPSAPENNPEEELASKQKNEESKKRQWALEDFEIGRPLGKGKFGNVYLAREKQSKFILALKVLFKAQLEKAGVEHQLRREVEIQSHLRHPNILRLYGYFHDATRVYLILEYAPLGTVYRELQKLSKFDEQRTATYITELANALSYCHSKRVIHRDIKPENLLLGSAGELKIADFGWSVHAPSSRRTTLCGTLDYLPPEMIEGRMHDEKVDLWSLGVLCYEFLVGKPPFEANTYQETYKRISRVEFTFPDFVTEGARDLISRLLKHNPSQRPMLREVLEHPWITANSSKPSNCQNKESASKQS

Btk = molecular target: T4, Btk (Homo sapiens, UniProt Q06187); assay: Z'-Lyte FRET kinase assay (Invitrogen), Btk; settings: read-out: IC50, activity toward kinase Btk
T4 construct: purchased Invitrogen (assay run by Invitrogen)

Pyk2 = molecular target: T5, Pyk2 (Homo sapiens, UniProt Q14289); assay: AlphaScreen kinase assay, Pyk2; settings: read-out: IC50, activity toward kinase Pyk2
T5 construct: purchased Upstate Biotechnology

Kdr = molecular target: T6, Kdr (Homo sapiens, UniProt P35968); assay: Z'-Lyte FRET kinase assay (Invitrogen), Kdr; settings: read-out: IC50, activity toward kinase Kdr
T6 construct: purchased Invitrogen (assay run by Invitrogen)

Flt1 = molecular target: T7, Flt1 (Homo sapiens, UniProt P17948); assay: AlphaScreen kinase assay, Flt1; settings: read-out: IC50, activity toward kinase Flt1
T7 construct: P1826.pETN6 BI-PTP FLT1 M799-D1165-X WT; His6 (N); made in house; host or cells: E. coli (PTP1B co-expressed)
T7 sequence (P17948 with tags, fused parts or gaps): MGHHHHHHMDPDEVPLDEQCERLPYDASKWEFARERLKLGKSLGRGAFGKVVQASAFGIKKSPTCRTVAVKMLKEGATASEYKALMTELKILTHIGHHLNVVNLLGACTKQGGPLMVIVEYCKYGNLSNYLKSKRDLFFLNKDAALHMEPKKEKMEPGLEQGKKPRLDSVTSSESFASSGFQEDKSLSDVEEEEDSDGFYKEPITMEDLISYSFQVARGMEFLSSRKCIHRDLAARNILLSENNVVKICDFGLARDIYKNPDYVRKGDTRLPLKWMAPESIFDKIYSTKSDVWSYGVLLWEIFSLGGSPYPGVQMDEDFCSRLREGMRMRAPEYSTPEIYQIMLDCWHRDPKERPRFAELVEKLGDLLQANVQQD

Fak = molecular target: T8, Fak (Homo sapiens, UniProt Q05397); assay: AlphaScreen kinase assay, Fak; settings: read-out: IC50, activity toward kinase Fak
T8 construct: P1358.pFastBacHtb FAK S411-Q686-X; His6 with pFastBacHTb leader (TEV site) (N); made in house; host or cells: Sf9 (baculovirus)

Kit = molecular target: T9, Kit (Homo sapiens, UniProt P10721); assay: AlphaScreen kinase assay, Kit; settings: read-out: IC50, activity toward kinase Kit
T9 construct: P1332.N6 BI PTP KIT M552-K948-X COD; His6 (N); made in house; host or cells: E. coli (PTP1B co-expressed)

MAP2K1 = molecular target: T10, MAP2K1 (Homo sapiens, UniProt Q02750); assay: Z'-Lyte FRET kinase assay (Invitrogen), MAP2K1; settings: read-out: IC50, activity toward kinase MAP2K1
T10 construct: purchased Invitrogen (assay run by Invitrogen)

Yes = molecular target: T11, Yes (Homo sapiens, UniProt P07947); assay: Z'-Lyte FRET kinase assay (Invitrogen), Yes; settings: read-out: IC50, activity toward kinase Yes
T11 construct: purchased Invitrogen (Carlsbad, Calif.), screening service
Outline: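 Inhibition was inferred from protease cleavage of non-phosphorylated peptide, measured as a coumarin/fluorescein ratio. Kinase reactions used 10 μM ATP for 1 h at room temperature.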

EphB2 = molecular target: T12, EphB2 (Homo sapiens, UniProt P29323); assay: Z'-Lyte FRET kinase assay (Invitrogen), EphB2; settings: read-out: IC50, activity toward kinase EphB2
T12 construct: purchased Invitrogen (assay run by Invitrogen)
T12 sequence (P29323 19-1055): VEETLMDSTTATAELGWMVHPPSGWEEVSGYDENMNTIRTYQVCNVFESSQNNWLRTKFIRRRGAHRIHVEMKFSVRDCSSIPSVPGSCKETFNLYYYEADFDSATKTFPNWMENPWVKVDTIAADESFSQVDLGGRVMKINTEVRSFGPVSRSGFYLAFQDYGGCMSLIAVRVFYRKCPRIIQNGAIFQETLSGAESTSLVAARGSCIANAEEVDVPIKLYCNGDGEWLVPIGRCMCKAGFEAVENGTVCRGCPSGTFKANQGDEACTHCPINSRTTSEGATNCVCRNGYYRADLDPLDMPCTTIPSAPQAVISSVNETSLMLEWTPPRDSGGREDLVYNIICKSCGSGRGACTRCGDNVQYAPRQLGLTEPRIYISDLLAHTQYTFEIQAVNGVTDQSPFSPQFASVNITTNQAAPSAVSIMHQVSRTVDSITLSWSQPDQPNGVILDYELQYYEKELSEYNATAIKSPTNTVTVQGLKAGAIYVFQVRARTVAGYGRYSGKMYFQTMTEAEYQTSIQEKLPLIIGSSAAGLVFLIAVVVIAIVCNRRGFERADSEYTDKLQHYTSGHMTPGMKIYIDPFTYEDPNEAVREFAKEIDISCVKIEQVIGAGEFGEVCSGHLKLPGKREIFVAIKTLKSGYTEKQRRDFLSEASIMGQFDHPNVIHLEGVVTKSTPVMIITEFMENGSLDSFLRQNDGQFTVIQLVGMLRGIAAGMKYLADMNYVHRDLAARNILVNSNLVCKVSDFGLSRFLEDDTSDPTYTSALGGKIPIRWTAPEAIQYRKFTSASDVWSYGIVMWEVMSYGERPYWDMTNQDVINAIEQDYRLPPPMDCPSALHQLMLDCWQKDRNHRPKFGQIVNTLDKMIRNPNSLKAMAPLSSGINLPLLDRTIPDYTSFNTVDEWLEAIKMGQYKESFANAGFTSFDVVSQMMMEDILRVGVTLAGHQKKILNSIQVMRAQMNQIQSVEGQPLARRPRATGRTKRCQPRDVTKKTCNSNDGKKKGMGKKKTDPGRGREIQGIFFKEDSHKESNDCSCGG
From the text: The effect of potential modulators of kinase activity can be measured in a variety of different assays known in the art. For example, direct radiometric, indirect FRET or AlphaScreen assays may be used to assess the level of phosphorylation of a substrate in the presence of test compounds in order to determine the inhibitory affect of the compound on the kinase. Invitrogen (Carlsbad, Calif.) uses a FRET based assay for Btk, EGFR, EphB2, Flt3, lrak4, Kdr, MAP2K1, MAPKAPK2, PDGFRB, PKC theta, Stk6 and Yes. For these assays, compounds of the invention were screened by Invitrogen using Z′-Lyte™ kinase assay.
Briefly, the Invitrogen kinase assay involves use of a specific peptide substrate optimized for each kinase, containing a fluorophore at each end that make up the FRET pair. The peptide sensitivity to proteolytic cleavage depends on phosphorylation of the peptide. Non-phosphorylated peptide is cleaved by a protease while peptide phosphorylated by the kinase is not cleaved. Cleavage of the peptide disrupts the FRET between the donor (coumarin) and acceptor (fluorescein) fluorophores, resulting in an increase in the ratio of donor emission to acceptor emission. The emission ratio of coumarin to fluorescein is used to assess the reaction progress. The extent of phosphorylation is determined from the emission ratio, which is low when the kinase is active (phosphorylated peptide is not cleaved, FRET pair connected) or higher for inhibited kinase (non-phosphorylated peptide is cleaved, FRET pair separated). Thus, the assay involves a kinase reaction in the presence of varying concentrations of a given compound, a development reaction with site specific protease, and detection of the fluorescent emission ratio of coumarin and fluorscein. […] Reaction conditions for each kinase are determined to provide optimal reaction times, incubation temperature, kinase and ATP concentrations. Test samples are made up in 1× kinase buffer (50 mM HEPES pH 7.5, 50 mM MgCl2, 5 mM EGTA, 0.05% BRIJ-35) and compound at desired concentration prepared in DMSO such that the final DMSO is 1%. […] Typically, assay plates are prepared to 10 μl final volume per sample, adding 2.5 μl of compound at 4× the desired concentration in 4% DMSO (serial dilution of compound provides concentration curve), 5 μl of the desired kinase mixed with Z′-LYTE™ peptide substrate (2× in 2× kinase buffer, final peptide at 2 μM), and 2.5 μl of 4×ATP solution. All kinase except for MAP2K1 were at 10 μM ATP in the kinase reaction, while MAP2K1 was at 100 μM. Samples are mixed and the kinase reaction is incubated 1 hour at room temperature, after which 5 μl of development solution is added and mixed. After incubation for another 1 hour at room temperature, 5 μl of stop reagent is added to each sample and mixed. The fluorescence signals are measured to determine the emission ratio.

FGFR1 = molecular target: T13, FGFR1 (Homo sapiens, UniProt P11362, C488A/C584S); assay: AlphaScreen kinase assay, FGFR1; settings: read-out: IC50, activity toward kinase FGFR
T13 construct: P1351.pET N6 BI-PTP FGFR A458-E765-X C488A, C584S; made in house; host or cells: E. coli (PTP1B co-expressed)

Akt3 = Akt3 (Homo sapiens, UniProt Q9Y243); assay: AlphaScreen kinase assay, Akt3; settings: read-out: IC50, activity toward kinase Akt3
Outline: as §1

Measured: IC50

T1 sequence (P15056 with tags, fused parts or gaps V600E): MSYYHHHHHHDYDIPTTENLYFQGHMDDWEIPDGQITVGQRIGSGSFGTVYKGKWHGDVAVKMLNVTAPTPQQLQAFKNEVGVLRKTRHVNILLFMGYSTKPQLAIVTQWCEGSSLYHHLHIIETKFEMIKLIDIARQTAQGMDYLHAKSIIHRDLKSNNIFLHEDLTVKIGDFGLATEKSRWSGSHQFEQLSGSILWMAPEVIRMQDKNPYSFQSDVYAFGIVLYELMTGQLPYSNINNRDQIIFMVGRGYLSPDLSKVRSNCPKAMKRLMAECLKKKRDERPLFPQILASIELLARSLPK
Sequence of Plk1 (P53350 whole entry): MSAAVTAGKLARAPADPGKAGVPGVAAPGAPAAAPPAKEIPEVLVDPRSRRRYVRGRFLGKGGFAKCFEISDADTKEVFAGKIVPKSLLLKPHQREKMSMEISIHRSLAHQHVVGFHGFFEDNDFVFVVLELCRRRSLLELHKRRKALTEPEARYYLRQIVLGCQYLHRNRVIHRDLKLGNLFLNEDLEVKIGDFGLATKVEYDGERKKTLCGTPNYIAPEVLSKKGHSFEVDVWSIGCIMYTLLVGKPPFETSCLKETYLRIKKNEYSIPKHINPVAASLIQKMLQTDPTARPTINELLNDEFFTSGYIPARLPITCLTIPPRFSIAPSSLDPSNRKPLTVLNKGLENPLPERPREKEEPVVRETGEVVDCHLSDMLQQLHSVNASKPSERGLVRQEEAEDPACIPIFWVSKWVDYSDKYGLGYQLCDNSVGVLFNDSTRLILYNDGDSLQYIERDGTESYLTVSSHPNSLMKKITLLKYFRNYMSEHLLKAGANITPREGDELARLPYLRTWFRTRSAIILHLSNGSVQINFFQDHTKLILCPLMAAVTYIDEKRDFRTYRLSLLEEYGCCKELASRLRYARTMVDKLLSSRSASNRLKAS
T4 sequence (Q06187 whole entry): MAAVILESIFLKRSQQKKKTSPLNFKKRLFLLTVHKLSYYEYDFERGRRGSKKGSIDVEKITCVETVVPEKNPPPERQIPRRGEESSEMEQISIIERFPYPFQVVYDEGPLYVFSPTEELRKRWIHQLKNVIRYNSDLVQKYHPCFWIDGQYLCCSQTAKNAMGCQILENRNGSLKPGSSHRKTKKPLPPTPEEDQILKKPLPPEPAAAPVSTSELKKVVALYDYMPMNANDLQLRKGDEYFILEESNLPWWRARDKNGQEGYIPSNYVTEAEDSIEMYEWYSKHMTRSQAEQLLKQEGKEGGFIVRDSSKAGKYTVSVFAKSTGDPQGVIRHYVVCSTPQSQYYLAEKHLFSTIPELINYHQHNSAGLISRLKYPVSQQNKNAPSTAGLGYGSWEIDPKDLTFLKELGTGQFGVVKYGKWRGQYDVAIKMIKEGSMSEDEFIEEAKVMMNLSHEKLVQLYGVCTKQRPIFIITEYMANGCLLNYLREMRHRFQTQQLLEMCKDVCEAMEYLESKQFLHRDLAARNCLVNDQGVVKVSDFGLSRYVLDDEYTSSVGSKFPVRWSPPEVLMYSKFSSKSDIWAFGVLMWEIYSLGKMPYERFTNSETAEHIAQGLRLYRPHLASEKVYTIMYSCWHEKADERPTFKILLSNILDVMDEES
T6 sequence (P35968 20-1356): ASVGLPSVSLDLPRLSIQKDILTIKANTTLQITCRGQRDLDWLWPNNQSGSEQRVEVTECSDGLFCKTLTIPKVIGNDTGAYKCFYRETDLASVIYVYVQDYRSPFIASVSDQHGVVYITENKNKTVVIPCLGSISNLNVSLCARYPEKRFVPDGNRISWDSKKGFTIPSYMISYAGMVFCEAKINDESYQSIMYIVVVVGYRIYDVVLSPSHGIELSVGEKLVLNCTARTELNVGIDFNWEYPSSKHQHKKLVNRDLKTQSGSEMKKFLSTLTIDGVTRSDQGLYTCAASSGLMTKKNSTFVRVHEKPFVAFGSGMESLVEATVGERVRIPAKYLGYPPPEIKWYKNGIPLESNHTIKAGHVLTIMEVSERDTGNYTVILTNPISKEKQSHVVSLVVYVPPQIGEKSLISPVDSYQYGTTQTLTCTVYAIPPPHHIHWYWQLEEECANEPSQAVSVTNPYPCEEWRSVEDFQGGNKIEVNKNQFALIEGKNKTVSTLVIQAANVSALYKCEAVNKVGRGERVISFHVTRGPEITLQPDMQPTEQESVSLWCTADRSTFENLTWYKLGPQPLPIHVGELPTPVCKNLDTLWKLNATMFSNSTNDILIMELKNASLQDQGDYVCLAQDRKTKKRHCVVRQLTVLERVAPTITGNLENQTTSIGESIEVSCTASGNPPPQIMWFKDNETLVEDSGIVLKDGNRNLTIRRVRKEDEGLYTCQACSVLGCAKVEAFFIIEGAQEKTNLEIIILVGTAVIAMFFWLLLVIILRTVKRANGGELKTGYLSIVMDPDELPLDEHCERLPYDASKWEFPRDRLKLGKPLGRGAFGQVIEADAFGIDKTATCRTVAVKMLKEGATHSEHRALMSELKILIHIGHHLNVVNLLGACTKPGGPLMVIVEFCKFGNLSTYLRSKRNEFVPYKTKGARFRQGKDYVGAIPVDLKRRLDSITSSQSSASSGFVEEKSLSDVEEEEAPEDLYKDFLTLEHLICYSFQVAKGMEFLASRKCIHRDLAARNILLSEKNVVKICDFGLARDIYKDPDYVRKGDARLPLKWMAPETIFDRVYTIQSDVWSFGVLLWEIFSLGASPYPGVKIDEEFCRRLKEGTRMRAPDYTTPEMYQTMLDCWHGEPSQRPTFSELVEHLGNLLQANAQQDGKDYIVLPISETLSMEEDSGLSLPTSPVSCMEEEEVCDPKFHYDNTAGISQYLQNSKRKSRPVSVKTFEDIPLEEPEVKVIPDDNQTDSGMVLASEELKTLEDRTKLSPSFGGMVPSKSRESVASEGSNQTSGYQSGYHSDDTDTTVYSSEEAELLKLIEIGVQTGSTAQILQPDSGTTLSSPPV
T11 sequence (P07947 whole entry): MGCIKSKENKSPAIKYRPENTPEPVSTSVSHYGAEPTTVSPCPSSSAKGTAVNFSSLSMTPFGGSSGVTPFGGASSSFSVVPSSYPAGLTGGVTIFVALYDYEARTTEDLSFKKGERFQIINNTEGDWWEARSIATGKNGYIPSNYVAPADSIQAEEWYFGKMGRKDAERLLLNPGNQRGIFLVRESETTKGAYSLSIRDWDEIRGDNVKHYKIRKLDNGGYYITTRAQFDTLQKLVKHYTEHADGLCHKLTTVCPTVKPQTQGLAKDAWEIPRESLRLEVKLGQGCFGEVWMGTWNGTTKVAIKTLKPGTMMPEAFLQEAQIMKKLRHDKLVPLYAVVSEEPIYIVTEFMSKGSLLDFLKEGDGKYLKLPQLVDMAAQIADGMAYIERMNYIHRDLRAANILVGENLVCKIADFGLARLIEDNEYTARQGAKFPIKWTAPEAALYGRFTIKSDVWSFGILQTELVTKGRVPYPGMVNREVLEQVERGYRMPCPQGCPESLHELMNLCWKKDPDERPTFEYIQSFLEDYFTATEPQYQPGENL
T10 sequence (Q02750 whole entry): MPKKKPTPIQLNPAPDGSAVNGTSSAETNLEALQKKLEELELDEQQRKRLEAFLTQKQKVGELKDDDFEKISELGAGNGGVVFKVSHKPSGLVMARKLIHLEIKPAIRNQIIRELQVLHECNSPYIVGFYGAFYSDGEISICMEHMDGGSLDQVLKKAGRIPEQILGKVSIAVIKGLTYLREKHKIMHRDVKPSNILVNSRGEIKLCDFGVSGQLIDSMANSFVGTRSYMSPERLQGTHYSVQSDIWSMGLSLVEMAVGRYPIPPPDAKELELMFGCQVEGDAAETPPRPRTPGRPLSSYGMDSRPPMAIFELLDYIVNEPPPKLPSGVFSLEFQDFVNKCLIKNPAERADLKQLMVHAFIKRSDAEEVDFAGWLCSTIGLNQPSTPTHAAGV
Sequence of Gsk3β (P49841 whole entry): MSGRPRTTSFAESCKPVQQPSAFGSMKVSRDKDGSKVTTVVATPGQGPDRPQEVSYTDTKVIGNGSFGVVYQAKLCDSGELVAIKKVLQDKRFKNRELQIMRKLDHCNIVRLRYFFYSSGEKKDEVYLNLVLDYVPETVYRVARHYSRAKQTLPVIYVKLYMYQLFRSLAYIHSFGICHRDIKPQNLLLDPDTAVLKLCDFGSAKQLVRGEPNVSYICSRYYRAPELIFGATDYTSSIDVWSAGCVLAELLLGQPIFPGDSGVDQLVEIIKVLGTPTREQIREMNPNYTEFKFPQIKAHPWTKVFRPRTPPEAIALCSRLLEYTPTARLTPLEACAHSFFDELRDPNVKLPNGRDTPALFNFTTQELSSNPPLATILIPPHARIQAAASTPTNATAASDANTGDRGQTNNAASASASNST
Sequence of Akt3 (Q9Y243 whole entry): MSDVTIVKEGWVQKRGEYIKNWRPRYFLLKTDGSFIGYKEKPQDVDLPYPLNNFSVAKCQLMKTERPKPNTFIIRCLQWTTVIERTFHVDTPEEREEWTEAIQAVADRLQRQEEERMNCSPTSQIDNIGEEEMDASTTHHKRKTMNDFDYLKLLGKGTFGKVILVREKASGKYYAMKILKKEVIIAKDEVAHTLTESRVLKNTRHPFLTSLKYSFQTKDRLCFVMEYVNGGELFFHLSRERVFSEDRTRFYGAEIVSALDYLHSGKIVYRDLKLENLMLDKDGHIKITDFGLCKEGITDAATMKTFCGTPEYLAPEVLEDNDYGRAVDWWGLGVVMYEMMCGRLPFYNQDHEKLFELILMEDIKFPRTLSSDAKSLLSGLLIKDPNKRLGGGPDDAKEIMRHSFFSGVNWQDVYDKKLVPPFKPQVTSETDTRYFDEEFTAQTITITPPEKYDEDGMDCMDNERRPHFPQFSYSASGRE
T8 sequence (Q05397 411-686): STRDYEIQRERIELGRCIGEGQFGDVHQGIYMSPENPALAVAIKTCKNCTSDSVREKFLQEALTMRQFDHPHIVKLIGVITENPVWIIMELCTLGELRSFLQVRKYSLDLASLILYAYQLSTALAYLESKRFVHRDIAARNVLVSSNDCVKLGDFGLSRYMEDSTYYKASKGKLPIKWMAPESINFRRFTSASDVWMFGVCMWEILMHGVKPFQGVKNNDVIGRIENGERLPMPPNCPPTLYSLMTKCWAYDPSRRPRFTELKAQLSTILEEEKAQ

Nc1cccc(-c2ccnc3[nH]cc(C(=O)c4ccc(Cl)cc4)c23)c1 [Compound P-0148]
≤ 10 µM: Plk1 | B-Raf V600E | Ret | Gsk3β | Stk6 | Btk

Cc1occc1Sc1c[nH]c2ncccc12 [Compound P-0018]
≤ 10 µM: Pyk2 | Kdr | Plk1 | Flt1 | Fak | Kit | Stk6 | MAP2K1

Nc1cccc(-c2ccnc3[nH]cc(C(=O)c4cccc(Cl)c4Cl)c23)c1 [Compound P-0075]
≤ 10 µM: Kdr | Plk1 | B-Raf V600E | Ret | Yes | EphB2 | Btk

Cc1ccccc1C(=O)c1c[nH]c2nccc(-c3cccnc3)c12 [Compound P-0083]
≤ 10 µM: Plk1 | Ret | Yes | EphB2 | Btk

COc1cccc(C(=O)c2c[nH]c3nccc(-c4cccc(N)c4)c23)c1 [Compound P-0099]
≤ 10 µM: FGFR1 | Plk1 | B-Raf V600E | Ret | Akt3 | Stk6 | MAP2K1
